Measurements: patent EP1273297A1, “Vitamin E for the treatment of diseases in which the binding of the transcription factor NF-KB and/or AP-1 to promoter target sites has a beneficial effect (eg AIDS, cardiac infarction)” (Deutsches Krebsforschungszentrum Stiftung des öffentlichen …, priority 2001, dated 2003)

Key:
CD95L mRNA [1] = experiment: CD95L mRNA levels by RT-PCR in day 6 T cells stimulated with plate bound α-CD3; assay type: cell-based, human; conditions: 25 µM vitamin E 1 h, then α-CD3 12 h (Fig. 1B)
Experimental: The day 6 T cells were cultured in the absence or presence of 25 µM vitamin E for 1 h and then stimulated for 12 h with plate bound α-CD3. The mRNA was analyzed by RT-PCR using primers specific for CD95L (Eichhorst et al., Mol. Cell. Biol. 20 (2000), 7826) . For controls, primers for IFNγ and β-actin were used. The primers had the following sequences: • CD95L: sense-5'-[…]-3' antisense-5'[…]-3' • IFN-γ: sense-5'[…]-3' antisense-5'[…]-3' • human β-actin: sense-5'[…]-3' antisense-5'[…]-3'
Since activation-induced-cell-death (AICD) is a major cause of T cell depletion in AIDS and since supplementation of vitamin E is shown to increase T cell numbers, it was investigated whether vitamin E could protect from T cell depletion by AICD. To analyze the effect of vitamin E on T cell death, freshly isolated peripheral blood T cells were prestimulated for 6 days (referred to as day 6 cells) and subsequently restimulated via the TCR by plate-bound α-CD3 antibodies. […] CD95 (APO-1/Fas) and its ligand (CD95L) are known to play a major role in AICD of T cells. […] The concentration of vitamin E in plasma from healthy individuals normally ranges from 12-35 µM. Thus, vitamin E at physiological concentrations may attenuate AICD. Indeed, depending on the blood donors, vitamin E reduced AICD by 20-50%. […]

NF-κB = experiment: EMSA, nuclear extracts of J-27 T cells, binding to CD95L promoter NF-κB sites; assay type: cell-based; conditions: J-27 nuclear extracts, PMA/ionomycin 2 h, 50 µM vitamin E added 1 h before induction (Fig. 3A)
Experimental: (A)^32P-labeled oligonucleotides containing the CD95L NF-κB (at the promoter -530 and -50 region) (Li-Weber et al., Eur. J. Immunol. 30 (2000), 661) and AP-1 (at the promoter +90 region) (Eichhorst et al., Mol. Cell. Biol. 20 (2000), 7826) binding sequences were analyzed by EMSA as described (Li-Weber et al., (2000). The EMSA probes had the following sequences: • CD95L NF-κB at-530: 5'-[…]-3' • CD95L NF-κB at-50: 5'-[…]-3' • CD95L AP-1 at +90: 5'-[…]-3'
(§1) Nuclear extracts were prepared from J-27 T cells either non-induced (-) or induced (+) for 2 h by PMA (10 ng/ml) and ionomycin (0.5 µM) in the absence (-) or presence (+) of 50 µM vitamin E (VE) (added 1 h before induction). The inducible complex corresponding to NF-κB and AP-1 were indicated. A NF-Y binding oligonucleotide 5'[…]-3' was used for equal loading of nuclear extracts.
It was investigated whether vitamin E affects NF-KB and AP-1 binding to the CD95L promoter target sites. Nuclear extracts were prepared from J-27 T cells stimulated in the presence or absence of vitamin E. The NF-κB and AP-1 binding sites contained in the CD95L promoter were used as probes in an electrophoretic-mobility-shift-assay (EMSA). Stimulation of T cell with PMA and ionomycin induced binding of nuclear factors to the NF-κB and AP-1 sites of the CD95L promoter (Fig. 3A). […]

CD95L mRNA [2] = experiment: CD95L mRNA levels by RT-PCR in peripheral blood lymphocytes of HIV positive individuals; assay type: cell-based, human; conditions: 25 µM vitamin E 1 h, α-CD3 12 h (Fig. 5)
Experimental: Freshly isolated peripheral blood lymphocytes from HIV positive individuals were treated without or with vitamin E (VE) (25 µM) for 1 h and than stimulated with plate bound α-CD3 ([…]) for 12 h. CD95L mRNA levels were examined by RT-PCR (Eichhorst et al., 2000). Results from 5 individuals are shown.
It was investigated whether vitamin E could block CD95L expression in the peripheral blood lymphocytes of HIV positive individuals. Peripheral blood lymphocytes from such individuals were subjected to analysis of the CD95L mRNA expression levels in the absence or the presence of vitamin E. Different levels of the CD95L mRNA expression were found in lymphocytes from different HIV patients examined. […] Experimental details are given in the legend to Figure 5.

NF-Y = experiment: EMSA control, constitutive transcription factor, NF-Y binding oligonucleotide; assay type: cell-based; conditions: J-27 nuclear extracts, 50 µM vitamin E (Fig. 3A)
Experimental: as §1
It was investigated whether vitamin E affects NF-KB and AP-1 binding to the CD95L promoter target sites. Nuclear extracts were prepared from J-27 T cells stimulated in the presence or absence of vitamin E. The NF-κB and AP-1 binding sites contained in the CD95L promoter were used as probes in an electrophoretic-mobility-shift-assay (EMSA). Stimulation of T cell with PMA and ionomycin induced binding of nuclear factors to the NF-κB and AP-1 sites of the CD95L promoter (Fig. 3A). These inducible binding complexes were either reduced or supershifted in the presence of antibodies against the subunits p50 and p65 of NF-κB or antibodies against the AP-1 family members Jun and Fos (Fig. 3B). […] As a control, the constitutive transcription factor […] was not affected by vitamin E (Fig. 3A). Experimental details are given in the legend to Figure 3.

[3] = test system: peripheral blood lymphocytes of HIV positive individuals; experiment: AICD of peripheral blood lymphocytes of HIV positive individuals stimulated with plate bound α-CD3; assay type: cell-based, human
Experimental: Peripheral blood lymphocytes from HIV positive individuals (n = 33 Patients) and uninfected donors (11 Donors) were stimulated with plate bound (α-CD3 (50 µg/ml) for 48 h. Apoptosis was assessed by a drop in the forward to side scatter profile of apoptotic in comparison to living cells. The mean difference between patients and uninfected individuals is -7.23. 95% confidence interval is -13.7, -2.12.
Freshly isolated blood lymphocytes from 31 HIV positive individuals were stimulated with plate bound α-CD3 in the absence or presence of either 50 µg/ml CD95-Fc or 25 µM vitamin E (VE) (added 1 h before stimulation). IgG-1 (50 µg/ml), Sigma (St. Louis, MO, USA) was used as control. Cell death was assessed after 48 h stimulation.
To determine if vitamin E could reduce depletion of T cells from HIV positive individuals next the effects of vitamin E on AICD in peripheral blood lymphocytes of such individuals were analyzed. […] As opposed to lymphocytes from healthy donors lymphocytes isolated from HIV-infected individuals were more susceptible to apoptosis (Fig. 6A). […] Experimental details are given in the legend to Figure 6.

CD95L mRNA [4] = experiment: CD95L mRNA expression by RT-PCR in J-27 T cells stimulated by PMA and ionomycin; assay type: cell-based; conditions: J-27 cells
Experimental: J-27 T cells were cultured in the absence or presence of 50 µM vitamin E for 1 h and then stimulated by PMA (10 ng/ml) and ionomycin (0.5 µM) for the indicated times. CD95L mRNA expression was analyzed by RT-PCR. Primers for IFNγ and β-actin were used as controls.
(§2) To further investigate the molecular mechanism by which vitamin E attenuates AICD, several Jurkat T cell sub-clones susceptible to T-cell-receptor (TCR)-mediated-activation-induced apoptosis were selected. Data from one of the representative clones, clone 27 (J-27) is presented here. Activation of T cells through the T cell receptor can be mimicked by stimulation with the phorbol ester (PMA) and calcium ionophores (ionomycin). […] Therefore, it is unlikely that vitamin E directly interferes with signals downstream of the CD95 receptor. […] Thus, vitamin E may reduce CD95L expression at the transcriptional level and, therefore, attenuate AICD in J-27 cells. Experimental details are given in the legend to Figure 2.

Jurkat J-27 T cells = experiment: AICD of Jurkat J-27 T cells, apoptotic nuclei by DNA fragmentation; assay type: cell-based; conditions: J-27 cells, PMA 10 ng/ml and ionomycin 0.5 µM, 24 h (Fig. 2A, B)
Experimental: J-27 T cells were induced either with PMA (10 ng/ml) Sigma (St. Louis, MO, USA) and ionomycin (0.5 µM), Calbiochem (Bad Soden/Ts, Germany) or with plate bound α-CD3 (OKT3, 50 µg/ml) for 24 h in the presence of vitamin E or equal amount of the vitamin E solvent ethanol. Apoptotic nuclei were measured by determination of DNA fragmentation (Dhein et al., Nature 373 (1995), 438).
J-27 cells were stimulated in the absence or presence of CD95-Fc (50 µg/ml) or NOKI (50 µg/ml). BD-Pharmingen (Heidelberg, Germany), for 24 h.
as §2

In the case of Cc1c(C)c2c(c(C)c1O)CC[C@@](C)(CCC[C@H](C)CCC[C@H](C)CCCC(C)C)O2 [vitamin E, α-tocopherol], the “increase of CD95L mRNA expression upon restimulation” value (CD95L mRNA [1]) is reported as “blocked”, the “binding of NF-κB to its binding sites of the CD95L promoter (-530 and -50 region)” value (NF-κB) is reported as “prevented binding” and the “expression of CD95L mRNA” value (CD95L mRNA [2]) is reported as “completely blocked in most patients”. The “NF-Y binding (constitutive loading control)” value (NF-Y) was “not affected”, the AICD ([3]; 31 HIV positive individuals, α-CD3, 25 µM vitamin E added 1 h before stimulation, 48 h (Fig. 6B)) was “greatly reduced” and the “reduction of AICD compared with that obtained by CD95-Fc” value ([3]; HIV positive individuals, 25 µM vitamin E vs 50 µg/ml CD95-Fc (Fig. 6B)) was “even more pronounced”. For the same compound, the “CD95L mRNA expression” value (CD95L mRNA [4]; 50 µM vitamin E 1 h, then PMA/ionomycin (Fig. 2E)) was “substantially reduced”, the “reduction of CD95L mRNA expression” value (CD95L mRNA [4]; 50 µM vitamin E, 3 h post stimulation (Fig. 2E)) was “readily seen” and the “CD95L mRNA expression” value (CD95L mRNA [4]; 50 µM vitamin E, 6 h post stimulation (Fig. 2E)) was “nearly completely blocked”. For the same compound, the PMA/ionomycin-induced cell death (Jurkat J-27 T cells) was “significantly reduced”.
